The record followed here is patent publication US20230225324A1, “Synergistic Pesticidal Composition Against Sucking Pests Complex” (priority 2020, published 2023).

One data set concerns White fly. Kind of data set: Synergistic insecticidal effect of the combination, mortality of White fly (Table 2). It counts as in vivo. The text has this: (§1) Evaluation of the synergistic insecticidal effect of the composition comprising Diafenthiuron, Pyriproxyfen and an insecticide Dinotefuran can be established by using any synergistic insecticidal composition prepared by the process described in the above examples. For these evaluations one or more of the synergistic insecticidal compositions prepared in the examples are used here.
(§2) Synergism can be calculated by using the Colby's method i.e. the expected (or predicted) response of the combination is calculated by taking the product of the observed response for each individual component of the combination when applied alone divided by 100 and subtracting this value from the sum of observed response for each component when applied alone. Synergism of the combination is then determined by comparing the observed response of the combination to the expected (or predicted) response as calculated from the observed response of each individual component alone. If the observed response of the combination is greater than the expected (or predicted) response then the combination is said to be synergistic and falls within the definition of synergistic effect. (Colby, S. R., Weeds, 1967(15), p. 20-22).

In another data set the test system is Jassids. As to the kind of experiment: Synergistic insecticidal effect of the combination, mortality of Jassids (Table 3). In kind it is in vivo.
Text: as §1, §2

In the case of `CC(COc1ccc(Oc2ccccc2)cc1)Oc1ccccn1` (racemic) [Pyriproxyfen, 4-phenoxyphenyl (RS)-2-(2-pyridyloxy)propyl ether], the “Observed Mortality %” value in the data set on White fly (Pyriproxyfen 72 ppm) came to 30.70%; in the data set with White fly (Pyriproxyfen 96 ppm), 38.10%; with White fly (Pyriproxyfen 120 ppm), 43.70%; in the data set on White fly (Pyriproxyfen 144 ppm), 46.60%; in the data set on Jassids (Pyriproxyfen 72 ppm), 21.70%; in the data set on Jassids (Pyriproxyfen 96 ppm) it was 29.20%. Also, the “Observed Mortality %” value in the data set with Jassids (Pyriproxyfen 120 ppm) was determined as 35.50%; with Jassids (Pyriproxyfen 144 ppm), 37.90%.

In the case of `CC(C)c1cc(Oc2ccccc2)cc(C(C)C)c1NC(=S)NC(C)(C)C` [Diafenthiuron, 1-tert-butyl-3-(2,6-di-isopropyl-4-phenoxyphenyl)thiourea], the “Observed Mortality %” value with White fly (Diafenthiuron 120 ppm) is 38.40%; with White fly (Diafenthiuron 240 ppm), 48.50%; in the data set on White fly (Diafenthiuron 360 ppm), 57.30%; with White fly (Diafenthiuron 480 ppm) it was 61.80%; in the data set with Jassids (Diafenthiuron 120 ppm), 28.90%; with Jassids (Diafenthiuron 240 ppm), 42.00%. The “Observed Mortality %” value is reported as 48.50% in the data set on Jassids (Diafenthiuron 360 ppm) and 57.40% with Jassids (Diafenthiuron 480 ppm).

In the case of `CN/C(=N/CC1CCOC1)N[N+](=O)[O-]` (stereo not drawn) [Dinotefuran, 2-methyl-1-nitro-3-[(tetrahydro-3-furanyl)methyl]guanidine], the “Observed Mortality %” value amounted to 35.10% in the data set on White fly (Dinotefuran 45 ppm); 45.50% in the data set with White fly (Dinotefuran 60 ppm); 52.00% with White fly (Dinotefuran 75 ppm); 61.40% in the data set with White fly (Dinotefuran 90 ppm); 65.60% in the data set with Jassids (Dinotefuran 45 ppm); 73.40% in the data set on Jassids (Dinotefuran 60 ppm). In addition, the “Observed Mortality %” value in the data set with Jassids (Dinotefuran 75 ppm) came out at 79.00%; in the data set on Jassids (Dinotefuran 90 ppm), 83.80%.
